Measurements published in PMC4849104, “Selected novel 5'-amino-2'-hydroxy-1, 3-diaryl-2-propen-1-ones arrest cell cycle of HCT-116 in G0/G1 phase” (EXCLI Journal, 2016).
Values joined by “and” are separate entries in the source; they are usually repeats but may differ in a detail not shown here. Identical values can stand only once.

How the values were obtained:
[1] = tested on: human colon cancer (HCT-116) cells; experiment: Cytotoxicity by MTT assay on HCT-116; type: cell-based; details: for IC50 / IC50 (μM) HCT-116: MTT assay, 48 h incubation; for cytotoxicity against HCT-116 (in words): MTT, close to 200 µM including SEM
Protocol: (§1) Cytotoxicity of the synthesized compounds was evaluated in cancer cells namely human colon cancer (HCT-116) cells and human breast cancer (MCF-7) cells and normal kidney epithelial cells (Vero). These cells were originally procured from National Cancer Center for Cell Science, Pune, India and cultured in our lab using Dulbecco's modified Eagles medium (DMEM) containing 10 % fetal bovine serum (FBS) at 37 °C in an atmosphere containing 5 % CO2. All other chemicals used in this study were purchased from Sigma-Aldrich, USA.
(§2) Cell suspension containing 1 x 10^4 cells in 0.1 mL was seeded in a 96 well plate for 24 h. Test compounds were serially diluted with the medium to get a stock solution of 400 µM, 200 µM, 100 µM, 50 µM. After 24 h of incubation, 100 µL of test solution from respective stocks was added in triplicate and incubated for 48 h. After the treatment, drug-containing media was removed and 20 µL of MTT reagent (5 mg/mL in PBS) was added to each well. After 4 h of incubation at 37 °C, the MTT reagent was removed and 100 µL of 100 % DMSO was added to each well to solubilize formazan crystals. The optical density was measured using an ELISA plate reader at 540 nm and percentage cytotoxicity was calculated. (Kumar et al., 2012[15]; Zi and Simoneau, 2005[31]).

[2] = tested on: human breast cancer (MCF-7) cells; experiment: Cytotoxicity by MTT assay on MCF-7; type: cell-based; details: for IC50 / IC50 (μM) MCF-7: MTT assay, 48 h incubation; for cytotoxicity against MCF-7 (in words): MTT, close to 200 µM including SEM
Protocol: as §1, §2

[3] = tested on: normal kidney epithelial cells (Vero); experiment: Cytotoxicity by MTT assay on Vero; type: cell-based; details: 48 h incubation
Protocol: as §1, §2

HCT-116 cells [4] = experiment: Cell cycle analysis by flow cytometry with propidium iodide; type: cell-based, human; details: for phase of cell cycle arrest: HCT-116, AC-10 100 µM, AC-13 and AC-14 50 µM, doxorubicin 1 µM
Protocol: Flow cytometric analysis technique evaluates the effect of test compounds on cell cycle progression and check-points. Cells (1 x 10^6) were seeded in 25 cm^2 flasks and, after overnight adherence, incubated with test compounds. Then cells were detached by trypsinization and mixed with floating cells, centrifuged and washed with PBS. The cell pellets were fixed in 70 % ice-cold methanol and stored at -20 °C for 24 h. After that cell pellets were washed with PBS and isotonic PI solution [25 µM propidium iodide, 0.03 % NP-40 and 40 µg /ml RNase A] was added. The stained cells were analyzed using Accuri C6 flow cytometer (BD Biosciences, San Jose, CA, USA) with excitation at 488 nm and emission at 575/40 nm (Reddy et al., 2015[25]).

HCT-116 cells [5] = experiment: Acridine orange/ethidium bromide (AO/EB) dual nuclear staining, apoptotic index; type: cell-based, human; details: HCT-116, AO/EB; for percentage apoptotic nuclei (apoptotic index): mean ± SEM
Protocol: DNA-binding dyes Acridine orange (AO) and Ethidium bromide (EB) (Sigma, USA) were used for the morphological detection of apoptotic cells. 5 x 10^3 cells were seeded per well in 24-well plates with DMEM, containing 10 % FBS. After 24 h, cells were treated with selected concentrations of test compounds and incubated for 24 h. The media was removed and plate was washed with phosphate buffer saline (PBS, pH 7.4). Cells were fixed in ice-cold methanol for 20 min, washed with PBS again and stained with acridine orange and ethidium bromide stain (20/30 µg/ml). After incubation for 20 min at 37 °C, and washing with PBS thrice, the plate was observed under a fluorescent microscope for morphological changes in nucleus such as condensed chromatin and fragmented nuclei. The apoptotic index (AI) was calculated as % of apoptotic cells from randomly counted 100 cells in each treatment group (Reddy et al., 2015[25]).

| Molecule | IC50 ([1]; Homo sapiens, HCT-116) [µM] | cytotoxicity against HCT-116 (in words) [1] | IC50 ([2]; Homo sapiens, MCF7) [µM] | cytotoxicity against MCF-7 (in words) [2] | IC50 ([3]; Chlorocebus sabaeus, Vero) [µM] | melting point [°C] | IC50 (μM) MCF-7 [2] | other results |
| --- | --- | --- | --- | --- | --- | --- | --- | --- |
| COc1ccc(/C=C/C(=O)c2cc(N)ccc2O)cc1OC [AC-9, (E)-1-(5-Amino-2-Hydroxyphenyl)-3-(3,4-dimethoxyphenyl)prop-2-en-1-one] | 186 ± 7.3 | high cytotoxicity | 190 ± 10.5 | high cytotoxicity | > 200 | 90 | – | – |
| COc1ccc(/C=C/C(=O)c2cc(N)ccc2O)cc1O [AC-8, (E)-1-(5-Amino-2-Hydroxyphenyl)-3-(3-hydroxy-4-methoxyphenyl)prop-2-en-1-one] | 123 ± 7.2 | high cytotoxicity | 171 ± 12.9 | high cytotoxicity | > 200 | 136 | – | – |
| COc1cc(/C=C/C(=O)c2cc(N)ccc2O)ccc1O [AC-7, (E)-1-(5-Amino-2-Hydroxyphenyl)-3-(4-hydroxy-3-methoxyphenyl)prop-2-en-1-one] | 393 ± 77.9 | – | 248 ± 4.31 | – | > 200 | 136 | – | – |
| (E)-1-(5-Amino-2-Hydroxyphenyl)-3-(3,4-dichlorophenyl)prop-2-en-1-one [AC-12] | – | – | – | – | – | – | – | IC50 [1]: 169 ± 66.7 µM; IC50 [2]: 236 ± 9.8 µM; IC50 [3]: > 200 µM |
| COc1cc(/C=C/C(=O)c2cc(N)ccc2O)cc(OC)c1OC [AC-14, (E)-1-(5-Amino-2-Hydroxyphenyl)-3-(3,4,5-trimethoxyphenyl)prop-2-en-1-one] | 62 ± 2.3 | high cytotoxicity | 197 ± 7.9 | high cytotoxicity | > 200 | 136 to 138 | – | % cells in G0/G1 phase (M1) (HCT-116 cells [4]; HCT-116, 50 µM, 48 h treatment): 70.8%; phase of cell cycle arrest (HCT-116 cells [4]): G0/G1 phase; percentage apoptotic nuclei (apoptotic index) (HCT-116 cells [5]; 50 µM): 24.3 ± 3.53% |
| COc1ccc(/C=C/C(=O)c2cc(N)ccc2O)cc1 [AC-11, (E)-1-(5-Amino-2-Hydroxyphenyl)-3-(4-methoxyphenyl)prop-2-en-1-one] | – | – | 1030 ± 60.6 | – | > 200 | 102 to 104 | – | IC50 (μM) HCT-116 [1]: No activity |
| COc1cccc2c1C(=O)c1c(O)c3c(c(O)c1C2=O)C[C@@](O)(C(=O)CO)C[C@@H]3O[C@H]1C[C@H](N)[C@H](O)[C@H](C)O1 [doxorubicin, reference compound] | – | – | – | – | – | – | – | more accumulation of cells in G2/M phase as compared to normal control (HCT-116 cells [4]; HCT-116, 1 µM (standard), normal control 23.0 %): 7.4%; phase of cell cycle arrest (HCT-116 cells [4]): G2/M phase |
| CCOc1ccc(/C=C/C(=O)c2cc(N)ccc2O)cc1 [AC-5, (E)-1-(5-Amino-2-Hydroxyphenyl)-3-(4-ethoxyphenyl)prop-2-en-1-one] | – | – | – | – | > 200 | 135 | No activity | IC50 (μM) HCT-116 [1]: No activity |
| Nc1ccc(O)c(C(=O)/C=C/c2ccccc2)c1 [AC-1, (E)-1-(5-Amino-2-Hydroxyphenyl)-3-phenylprop-2-en-1-one] | 299 ± 49.8 | – | 1960 ± 776 | – | > 200 | 126 | – | – |
| Nc1ccc(O)c(C(=O)/C=C/c2ccccc2O)c1 [AC-10, (E)-1-(5-Amino-2-Hydroxyphenyl)-3-(2-hydroxyphenyl)prop-2-en-1-one] | 95.4 ± 1.7 | high cytotoxicity | 74.7 ± 3.5 | high cytotoxicity | > 200 | 130 to 132 | – | % cells in G0/G1 phase (M1) (HCT-116 cells [4]; HCT-116, 100 µM, 48 h treatment): 70.5%; phase of cell cycle arrest (HCT-116 cells [4]): G0/G1 phase; percentage apoptotic nuclei (apoptotic index) (HCT-116 cells [5]; 100 µM): 27 ± 3.21% |
| Nc1ccc(O)c(C(=O)/C=C/c2ccc3c(c2)OCO3)c1 [AC-13, (E)-1-(5-Amino-2-Hydroxyphenyl)-3-(3,4-methylenedioxyphenyl)prop-2-en-1-one] | 42.1 ± 4 | high cytotoxicity | 130 ± 3.8 | high cytotoxicity | > 200 | 128 | – | % cells in G0/G1 phase (M1) (HCT-116 cells [4]; HCT-116, 50 µM, 48 h treatment): 66.5%; % cells in G2/M phase (M3) (HCT-116 cells [4]; HCT-116, 50 µM, 48 h treatment): 25.1%; phase of cell cycle arrest (HCT-116 cells [4]): G0/G1 and G2/M phase; increase in apoptotic nuclei compared to medium control (HCT-116 cells [5]; 50 µM): about five; percentage apoptotic nuclei (apoptotic index) (HCT-116 cells [5]; 50 µM): 31% and 31 ± 4.16% |
| Nc1ccc(O)c(C(=O)/C=C/c2ccc(OCc3ccccc3)cc2)c1 [AC-15, (E)-1-(5-Amino-2-Hydroxyphenyl)-3-(4-benzyloxyphenyl)prop-2-en-1-one] | 211 ± 26 | – | – | – | > 200 | 136 to 138 | No activity | – |
| Nc1ccc(O)c(C(=O)/C=C/c2cccc([N+](=O)[O-])c2)c1 [AC-4, (E)-1-(5-Amino-2-Hydroxyphenyl)-3-(3-nitrophenyl)prop-2-en-1-one] | 309 ± 74.1 | – | – | – | > 200 | 112 | No activity | – |
| Nc1ccc(O)c(C(=O)/C=C/c2ccc(F)cc2)c1 [AC-3, (E)-1-(5-Amino-2-Hydroxyphenyl)-3-(4-fluorophenyl)prop-2-en-1-one] | 174 ± 3.53 | high cytotoxicity | 542 ± 38.5 | – | > 200 | 154 | – | – |
| COc1cccc(/C=C/C(=O)c2cc(N)ccc2O)c1 [AC-6, (E)-1-(5-Amino-2-Hydroxyphenyl)-3-(3-methoxyphenyl)prop-2-en-1-one] | – | – | – | – | > 200 | 110 | No activity | IC50 (μM) HCT-116 [1]: No activity |
| Nc1ccc(O)c(C(=O)/C=C/c2ccc(Cl)cc2)c1 [AC-2, (E)-1-(5-Amino-2-Hydroxyphenyl)-3-(4-chlorophenyl)prop-2-en-1-one] | 205 ± 3.15 | high cytotoxicity | – | – | > 200 | 138 | No activity | – |
